pIC50: −log10 of the molar value.

We go through one molecule from paper PMC8190356, “The Effect of the EGFR - Targeting Compound 3-[(4-Phenylpyrimidin-2-yl) Amino] Benzene-1-Sulfonamide (13f) against Cholangiocarcinoma Cell Lines” (Asian Pacific Journal of Cancer Prevention : APJCP, 2021).

This experiment concerns the target T1, tyrosine kinase of EGFR (TK-EGFR) (Homo sapiens, UniProt P00533).
T1 construct: tyrosine kinase of EGFR (TK-EGFR), recombinant protein from E. coli
Put plainly: ADP-Glo kinase assay with recombinant TK-EGFR, […] ATP. It counts as biochemical. A general note: ADP-Glo first removes unused ATP, then detects ADP through luciferase.

T1 sequence (P00533 25-1210): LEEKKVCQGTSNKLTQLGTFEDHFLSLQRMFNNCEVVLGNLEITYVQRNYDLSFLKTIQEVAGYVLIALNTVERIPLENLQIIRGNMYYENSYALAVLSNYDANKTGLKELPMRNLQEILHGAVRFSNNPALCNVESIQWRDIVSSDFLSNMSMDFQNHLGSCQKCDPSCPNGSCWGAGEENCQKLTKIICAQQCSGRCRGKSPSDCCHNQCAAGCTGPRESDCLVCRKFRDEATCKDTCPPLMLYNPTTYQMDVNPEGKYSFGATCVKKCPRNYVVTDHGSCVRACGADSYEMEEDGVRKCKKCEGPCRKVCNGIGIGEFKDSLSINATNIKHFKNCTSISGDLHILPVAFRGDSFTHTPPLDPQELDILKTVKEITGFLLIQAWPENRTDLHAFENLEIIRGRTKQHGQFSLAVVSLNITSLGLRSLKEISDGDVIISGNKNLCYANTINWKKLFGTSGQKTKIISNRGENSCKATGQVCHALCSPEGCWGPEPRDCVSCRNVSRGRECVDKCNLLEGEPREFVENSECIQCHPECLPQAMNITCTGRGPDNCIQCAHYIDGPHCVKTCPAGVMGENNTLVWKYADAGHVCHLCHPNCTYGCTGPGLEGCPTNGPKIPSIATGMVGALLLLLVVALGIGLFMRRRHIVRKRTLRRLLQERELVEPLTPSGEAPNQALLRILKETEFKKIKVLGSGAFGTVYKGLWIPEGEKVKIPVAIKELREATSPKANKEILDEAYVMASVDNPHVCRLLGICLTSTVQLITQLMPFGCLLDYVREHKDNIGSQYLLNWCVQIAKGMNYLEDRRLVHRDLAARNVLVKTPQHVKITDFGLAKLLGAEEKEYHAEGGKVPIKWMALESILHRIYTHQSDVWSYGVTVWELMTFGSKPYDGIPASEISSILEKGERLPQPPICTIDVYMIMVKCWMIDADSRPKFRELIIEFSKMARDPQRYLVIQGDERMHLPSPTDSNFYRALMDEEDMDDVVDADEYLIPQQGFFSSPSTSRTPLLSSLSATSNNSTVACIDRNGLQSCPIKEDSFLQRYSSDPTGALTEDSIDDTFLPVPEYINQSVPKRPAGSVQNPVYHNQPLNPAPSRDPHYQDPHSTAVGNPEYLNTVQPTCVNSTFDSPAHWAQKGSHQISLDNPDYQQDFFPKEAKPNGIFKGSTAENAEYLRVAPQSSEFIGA

A word on the pIC50: it is the IC50 on a negative log10 scale, so that one unit is a factor of ten. As for `NS(=O)(=O)c1cccc(Nc2nccc(-c3ccccc3)n2)c1` [13f, 3-[(4-phenylpyrimidin-2-yl)amino] benzene-1-sulfonamide], the pIC50 is 7.64.
